Assay results as given in ChEMBL document CHEMBL3217516, “Library synthesis and cytotoxicity of a family of 2-phenylacrylonitriles and discovery of an estrogen dependent breast cancer lead compound” (Medchemcomm, 2011).

Columns and labels:
[1] = Cytotoxicity against human MIA cells after 72 hrs by MTT assay; type: functional
[2] = Cytotoxicity against human MCF10A cells after 72 hrs by MTT assay; type: cell-based, MCF-10A
[3] = Cytotoxicity against human MDA-MB-231 cells after 72 hrs by MTT assay; type: cell-based
[4] = test system: MCF7; assay: Selectivity ratio of GI50 for human MDA-MB-231 cells to GI50 for human MCF7 cells; type: functional
[5] = Selectivity ratio of GI50 for human MCF10A cells to GI50 for human MCF7 cells; type: ADME, cell-based, MCF-10A; details: MCF10A cells and MCF7 cells, read-out: RatioGI50
[6] = test system: MCF7; assay: Selectivity ratio of GI50 for human HT29 cells to GI50 for human MCF7 cells; type: functional
[7] = test system: MCF7; assay: Selectivity ratio of GI50 for human SW480 cells to GI50 for human MCF7 cells; type: functional
[8] = test system: A2780; assay: Selectivity ratio of GI50 for human A2780 cells to GI50 for human MCF7 cells; type: functional
[9] = test system: MCF7; assay: Selectivity ratio of GI50 for human H460 cells to GI50 for human MCF7 cells; type: functional
[10] = test system: MCF7; assay: Selectivity ratio of GI50 for human A431 cells to GI50 for human MCF7 cells; type: functional
[11] = test system: DU-145; assay: Selectivity ratio of GI50 for human DU145 cells to GI50 for human MCF7 cells; type: functional
[12] = test system: MCF7; assay: Selectivity ratio of GI50 for human BE(2)-C cells to GI50 for human MCF7 cells; type: functional
[13] = test system: MCF7; assay: Selectivity ratio of GI50 for human SJ-G2 cells to GI50 for human MCF7 cells; type: functional
[14] = test system: MCF7; assay: Selectivity ratio of GI50 for human MIA cells to GI50 for human MCF7 cells; type: functional
[15] = test system: HT-29; assay: Cytotoxicity against human HT-29 cells after 72 hrs by MTT assay; type: functional; details: HT-29, 72 h
[16] = test system: SW480; assay: Cytotoxicity against human SW480 cells after 72 hrs by MTT assay; type: functional; details: SW480, 72 h
[17] = test system: MCF7; assay: Cytotoxicity against human MCF7 cells after 72 hrs by MTT assay; type: functional; details: MCF7, 72 h
[18] = test system: A2780; assay: Cytotoxicity against human A2780 cells after 72 hrs by MTT assay; type: functional; details: A2780, 72 h
[19] = Cytotoxicity against human H460 cells after 72 hrs by MTT assay; type: functional; details: NCI-H460, 72 h
[20] = test system: A-431; assay: Cytotoxicity against human A431 cells after 72 hrs by MTT assay; type: functional; details: A-431, 72 h
[21] = test system: DU-145; assay: Cytotoxicity against human DU145 cells after 72 hrs by MTT assay; type: functional; details: DU-145, 72 h
[22] = Cytotoxicity against human BE(2)-C cells after 72 hrs by MTT assay; type: functional
[23] = Cytotoxicity against human SJ-G2 cells after 72 hrs by MTT assay; type: functional; details: SJ-G2, 72 h
[24] = test system: HT-29; assay: Cytotoxicity against human HT-29 cells at 100 uM after 72 hrs by MTT assay; type: functional; details: HT-29, 72 h, read-out: GI
[25] = test system: SW480; assay: Cytotoxicity against human SW480 cells at 100 uM after 72 hrs by MTT assay; type: functional; details: SW480, 72 h, read-out: GI
[26] = test system: MCF7; assay: Cytotoxicity against human MCF7 cells at 100 uM after 72 hrs by MTT assay; type: functional; details: MCF7, 72 h, read-out: GI
[27] = test system: A2780; assay: Cytotoxicity against human A2780 cells at 100 uM after 72 hrs by MTT assay; type: functional; details: A2780, 72 h, read-out: GI
[28] = Cytotoxicity against human H460 cells at 100 uM after 72 hrs by MTT assay; type: functional; details: NCI-H460, 72 h, read-out: GI
[29] = test system: A-431; assay: Cytotoxicity against human A431 cells at 100 uM after 72 hrs by MTT assay; type: functional; details: A-431, 72 h, read-out: GI
[30] = test system: DU-145; assay: Cytotoxicity against human DU145 cells at 100 uM after 72 hrs by MTT assay; type: functional; details: DU-145, 72 h, read-out: GI
[31] = Cytotoxicity against human BE(2)-C cells at 100 uM after 72 hrs by MTT assay; type: functional; details: read-out: GI
[32] = Cytotoxicity against human SJ-G2 cells at 100 uM after 72 hrs by MTT assay; type: functional; details: SJ-G2, 72 h, read-out: GI
[33] = Cytotoxicity against human MIA cells at 100 uM after 72 hrs by MTT assay; type: functional; details: read-out: GI
[34] = test system: HT-29; assay: Selectivity ratio of GI50 for human H460 cells to GI50 for human HT29 cells; type: functional
[35] = test system: SW480; assay: Selectivity ratio of GI50 for human H460 cells to GI50 for human SW480 cells; type: functional
[36] = test system: A2780; assay: Selectivity ratio of GI50 for human H460 cells to GI50 for human A2780 cells; type: functional
[37] = Selectivity ratio of GI50 for human H460 cells to GI50 for human A431 cells; type: functional
[38] = test system: DU-145; assay: Selectivity ratio of GI50 for human H460 cells to GI50 for human DU145 cells; type: functional
[39] = Selectivity ratio of GI50 for human H460 cells to GI50 for human BE(2)-C cells; type: functional
[40] = Selectivity ratio of GI50 for human H460 cells to GI50 for human SJ-G2 cells; type: functional
[41] = Selectivity ratio of GI50 for human H460 cells to GI50 for human MIA cells; type: functional
[42] = test system: DU-145; assay: Selectivity ratio of GI50 for human DU145 cells to GI50 for human HT29 cells; type: functional
[43] = test system: SW480; assay: Selectivity ratio of GI50 for human DU145 cells to GI50 for human SW480 cells; type: functional
[44] = test system: A2780; assay: Selectivity ratio of GI50 for human DU145 cells to GI50 for human A2780 cells; type: functional
[45] = test system: DU-145; assay: Selectivity ratio of GI50 for human DU145 cells to GI50 for human H460 cells; type: functional
[46] = test system: DU-145; assay: Selectivity ratio of GI50 for human DU145 cells to GI50 for human A431 cells; type: functional
[47] = test system: DU-145; assay: Selectivity ratio of GI50 for human DU145 cells to GI50 for human BE(2)-C cells; type: functional
[48] = test system: DU-145; assay: Selectivity ratio of GI50 for human DU145 cells to GI50 for human SJ-G2 cells; type: functional
[49] = test system: DU-145; assay: Selectivity ratio of GI50 for human DU145 cells to GI50 for human MIA cells; type: functional

N#C/C(=C\c1ccc([N+](=O)[O-])cc1)c1ccc(Cl)c(Cl)c1 gave a GI50 [1] of 27 µM, a GI50 at 72 h [2] of 16 µM and a GI50 at 72 h [3] of 34 µM. It also gave a RatioGI50 [4] of 268, a selectivity ratio [5] of 126 and a RatioGI50 [6] of 25. The RatioGI50 [7] was 543, the RatioGI50 [8] was 543 and the RatioGI50 [9] was 543. It also gave a RatioGI50 [10] of 543, a RatioGI50 [11] of 543 and a RatioGI50 [12] of 543. It also gave a RatioGI50 [13] of 543 and a RatioGI50 [14] of 543.
For N#C/C(=C\c1ccc[nH]1)c1ccc(Cl)c(Cl)c1, the GI50 [15] was 15 µM, the GI50 [16] was 23 µM and the GI50 [17] was 0.56 µM. It also gave a GI50 [18] of 16 µM, a GI50 [19] of 5.7 µM and a GI50 [20] of 3.2 µM. The GI50 [21] was 41 µM, the GI50 [22] was 25 µM and the GI50 [23] was 20 µM. For the same molecule, the GI50 [1] was 46 µM, the GI50 at 72 h [2] was 28 µM and the GI50 at 72 h [3] was 46 µM. It also gave a RatioGI50 [4] of 268 and a selectivity ratio [5] of 126.
With N#CC(Cc1ccc[nH]1)c1ccccc1 (centres undefined) the inhibition of growth at 100 µM [24] was 39%, the inhibition of growth at 100 µM [25] was 40% and the inhibition of growth at 100 µM [26] was 47%. For the same molecule, the inhibition of growth at 100 µM [27] was 76%, the inhibition of growth at 100 µM [28] was 15% and the inhibition of growth at 100 µM [29] was 20%. For the same molecule, the inhibition of growth at 100 µM [30] was 7%, the inhibition of growth at 100 µM [31] was 43% and the inhibition of growth at 100 µM [32] was 27%. It also gave an inhibition of growth at 100 µM [33] of 30%.
In the case of N#CC(Cc1ccc[nH]1)c1ccc(Cl)c(Cl)c1 (centres undefined), the inhibition of growth at 100 µM [24] is reported as 51%, the inhibition of growth at 100 µM [25] is reported as 34% and the inhibition of growth at 100 µM [26] is reported as 84%. It also gave an inhibition of growth at 100 µM [27] of 63%, an inhibition of growth at 100 µM [28] of 55% and an inhibition of growth at 100 µM [29] of 44%. For the same molecule, the inhibition of growth at 100 µM [30] was 24%, the inhibition of growth at 100 µM [31] was 42% and the inhibition of growth at 100 µM [32] was 33%. The inhibition of growth at 100 µM [33] was 20%.
In the case of CCCCCCCCC/C=C(\C#N)c1ccc(Cl)c(Cl)c1, the inhibition of growth at 100 µM [24] is reported as 53%, the inhibition of growth at 100 µM [25] is reported as 68% and the inhibition of growth at 100 µM [26] is reported as 49%. The inhibition of growth at 100 µM [27] was 24%, the inhibition of growth at 100 µM [28] was 100% and the inhibition of growth at 100 µM [29] was 88%. The inhibition of growth at 100 µM [30] was 87%, the inhibition of growth at 100 µM [31] was 73% and the inhibition of growth at 100 µM [32] was 70%. The inhibition of growth at 100 µM [33] was 22%.
Work on N#C/C(=C\c1ccccc1)c1ccc(Cl)c(Cl)c1 yielded an inhibition of growth at 100 µM [24] of 56%, an inhibition of growth at 100 µM [25] of 67% and an inhibition of growth at 100 µM [26] of 79%. It also gave an inhibition of growth at 100 µM [27] of 62%, an inhibition of growth at 100 µM [28] of 36% and an inhibition of growth at 100 µM [29] of 71%. For the same molecule, the inhibition of growth at 100 µM [30] was 36%, the inhibition of growth at 100 µM [31] was 47% and the inhibition of growth at 100 µM [32] was 72%. For the same molecule, the inhibition of growth at 100 µM [33] was 61%.
N#C/C(=C\c1cccc(Cl)c1)c1ccc(Cl)c(Cl)c1 gave a GI50 [15] of 8.4 µM, a GI50 [16] of 8.9 µM and a GI50 [17] of 7.2 µM. It also gave a GI50 [18] of 11 µM, a GI50 [19] of 40 µM and a GI50 [20] of 16 µM. It also gave a GI50 [21] of 55 µM, a GI50 [22] of 12 µM and a GI50 [23] of 12 µM. For the same molecule, the GI50 [1] was 15 µM, the RatioGI50 [34] was 5 and the RatioGI50 [35] was 5. For the same molecule, the RatioGI50 [36] was 5, the RatioGI50 [37] was 5 and the RatioGI50 [38] was 5. It also gave a RatioGI50 [39] of 5, a RatioGI50 [40] of 5 and a RatioGI50 [41] of 5. For the same molecule, the RatioGI50 [42] was 5, the RatioGI50 [43] was 5 and the RatioGI50 [44] was 5. The RatioGI50 [45] was 5, the RatioGI50 [46] was 5 and the RatioGI50 [47] was 5. It also gave a RatioGI50 [48] of 5 and a RatioGI50 [49] of 5.
